The record followed here is patent US20260327234A1, “NOVEL COMPOUNDS AS CYP11A1 INHIBITORS AND METHODS OF USE THEREOF” (Shenzhen Ionova Life Science Co., Ltd., priority 2023, published 2026).

Assay [1] has as its target T1, testosterone (T) production in NCI-H295R cells (Homo sapiens, UniProt P05108).
T1 construct: testosterone measured by LC-MS/MS as downstream steroid
T1 sequence (P05108 40-521): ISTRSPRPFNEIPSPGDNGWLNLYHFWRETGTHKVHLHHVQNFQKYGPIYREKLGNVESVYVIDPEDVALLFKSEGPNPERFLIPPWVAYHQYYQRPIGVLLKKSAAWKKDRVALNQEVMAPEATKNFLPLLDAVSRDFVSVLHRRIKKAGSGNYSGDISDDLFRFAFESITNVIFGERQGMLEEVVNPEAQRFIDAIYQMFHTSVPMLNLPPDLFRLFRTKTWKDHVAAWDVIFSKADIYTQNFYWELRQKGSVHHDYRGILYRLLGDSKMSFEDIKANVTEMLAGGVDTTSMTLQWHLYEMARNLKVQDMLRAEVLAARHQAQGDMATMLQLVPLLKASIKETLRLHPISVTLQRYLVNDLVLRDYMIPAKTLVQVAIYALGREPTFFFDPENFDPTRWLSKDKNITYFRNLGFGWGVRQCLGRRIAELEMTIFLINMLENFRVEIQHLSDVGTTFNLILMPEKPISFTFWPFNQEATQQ
The assay can be described thus: H295R Steroid Biosynthesis Inhibition Assay - inhibition of testosterone (T) production in NCI-H295R cells. The class given is cell-based. The conditions noted are these: 48 h, LC-MS/MS, read-out: Inh. of T IC50. An outline of the steps: (§1)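 NCI-H295R cells (60,000/well, charcoal-stripped FBS medium) were exposed to compounds at 1000–0.15 nM for 48 h. Pregnenolone and testosterone in medium were quantified by LC-MS/MS with deuterated internal standards. IC50 was fitted with a four-parameter inhibitory dose-response equation.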

In assay [2] the target is T2, CYP11A1 (Homo sapiens, UniProt P05108).
T2 construct: measuring the cellular production of pregnenolone (P) catalyzed by CYP11A1; host or cells: NCI-H295R
T2 sequence (P05108 40-521): T1 sequence (P05108 40-521)
Nature of the assay: H295R Steroid Biosynthesis Inhibition Assay - inhibition of pregnenolone (P) production catalyzed by CYP11A1 in NCI-H295R cells. The class given is cell-based. The conditions noted are these: 48 h, LC-MS/MS, read-out: Inh. of P IC50. An outline of the steps:
as §1

For orientation: IC50 means the concentration needed to halve the response being measured.

Take `CS(=O)(=O)c1ccc(-c2cc3oc(CN4Cc5ccccc5C4)cc(=O)c3o2)cc1` [Compound 49]: the IC50 in assay [1] and in assay [2] was not above 40 nM throughout.
Take `Cc1nc(C2CCN(S(C)(=O)=O)CC2)nc2ccc(CN3Cc4ccccc4C3)cc12` [Compound 83]: the IC50 in assay [1] and in assay [2] was not above 40 nM each time.
As for `C[C@]1(O)CC[C@H](c2cc3oc(CN4Cc5ccccc5C4)cc(=O)c3o2)CC1` [Compound 27], the IC50 in assay [1] and in assay [2] was not above 40 nM throughout.
On to `CC(c1ccc(OCC2CCN(S(C)(=O)=O)CC2)c2ncccc12)N1Cc2ccccc2C1` (stereo not drawn) [Compound 9], for which the IC50 in assay [1] and in assay [2] was not above 40 nM in each case.
Regarding `O=c1cc(CN2Cc3ccccc3C2)oc2cc([C@@H]3CCC[C@@H](O)C3)oc12` [Compound 36], the results for the IC50 in assay [1] and in assay [2] were not below 101 nM and 40 to 100 nM, respectively.
Take `CS(=O)(=O)N1CCC(c2cc3oc(CN4Cc5ccc(F)cc5C4)cc(=O)c3o2)CC1` [Compound 17]: the IC50 in assay [1] and in assay [2] was not above 40 nM throughout.
Turning to `CS(=O)(=O)N1CC2(CC(c3cc4oc(CN5Cc6ccccc6C5)cc(=O)c4o3)C2)C1` [Compound 23], the IC50 in assay [1] and in assay [2] was not above 40 nM throughout.
On to `Cn1c(C2CCN(S(C)(=O)=O)CC2)nc2ccc(CN3Cc4ccccc4C3)cc21` [Compound 130], for which the IC50 is not below 101 nM in assay [1] and not above 40 nM in assay [2].
For `COC(=O)N1CCC(c2cc3oc(CN4Cc5ccccc5C4)cc(=O)c3o2)CC1` [Compound 15], the IC50 in assay [1] and in assay [2] was not above 40 nM throughout.
